# Measured values from patent US7348402B2, “Antimicrobial peptide, its analogs and antimicrobial composition comprising them” (priority 2002, dated 2008).
# No end group written: not given here.
# Assays:
# Type in all cases: cell-based
# [1] = system: Saccharomyces cerevisiae (ATCC 44774); details: ATCC 44774, 12 h
# From the text: (§1) The microorganisms used in the present invention include Gram-positive bacteria such as Bacillus subtilis (ATCC 62037), Staphylococcus aureus (ATCC 15752) and Streptococcus mutans (ATCC 25175), Gram-negative bacteria such as Escherichia coli (ATCC 27325), Salmonella enteritidis (ATCC 15277) and Pseudomonas putida (ATCC 17426) and fungi such as Candida albicans (ATCC 10231), Saccharomyces cerevisiae (ATCC 44774) and Cryptococcus neoformans (ATCC 34881), obtained from American Type Culture Collection (ATCC).
# (§2) The antimicrobial activity of the peptides prepared in Example 1 was determined against microorganisms by 96-well microdilution minimal inhibitory concentration assay. After overnight culturing the bacteria and fungi in trypticase soy broth (TSB) and Saboraud (SAB) at 37° C. and 30° C., respectively, they were inoculated in new media and cultured for 2 hours to exponential growth phase. After diluting the microorganisms to 10^5 per 1 ml, 190 μl was inoculated in each 96-well plate, and 10 μl of serially diluted peptides were added in each well.
# [2] = system: Salmonella enteritidis (ATCC 15277); details: ATCC 15277, 12 h
# From the text: as §1, §2
# [3] = system: Candida albicans (ATCC 10231); details: ATCC 10231, 12 h
# From the text: as §1, §2
# [4] = system: Pseudomonas putida (ATCC 17426); details: ATCC 17426, 12 h
# From the text: as §1, §2
# [5] = system: Staphylococcus aureus (ATCC 15752); details: ATCC 15752, 12 h
# From the text: as §1, §2
# [6] = system: Cryptococcus neoformans (ATCC 34881); details: ATCC 34881, 12 h
# From the text: as §1, §2
# [7] = system: Bacillus subtilis (ATCC 62037); details: ATCC 62037, 12 h
# From the text: as §1, §2
# [8] = system: Streptococcus mutans (ATCC 25175); details: ATCC 25175, 12 h
# From the text: as §1, §2
# [9] = system: Escherichia coli (ATCC 27325); details: ATCC 27325, 12 h
# From the text: as §1, §2
substance,measurement,setting,value
RVVKNWPIGRVVKRVVKRVVK [compound 26],Minimum Inhibitory Concentration,[1],2 µg/mL
same,Minimum Inhibitory Concentration,[2],1 µg/mL
same,Minimum Inhibitory Concentration,[3],2 µg/mL
same,Minimum Inhibitory Concentration,[4],1 µg/mL
same,Minimum Inhibitory Concentration,[5],1 µg/mL
same,Minimum Inhibitory Concentration,[6],1 µg/mL
same,Minimum Inhibitory Concentration,[7],1 µg/mL
same,Minimum Inhibitory Concentration,[8],1 µg/mL
same,Minimum Inhibitory Concentration,[9],2 µg/mL
KVVRQWPIGKVVRKVVRKVVR [compound 10],Minimum Inhibitory Concentration,[1],2 µg/mL
same,Minimum Inhibitory Concentration,[2],1 µg/mL
same,Minimum Inhibitory Concentration,[3],2 µg/mL
same,Minimum Inhibitory Concentration,[4],1 µg/mL
same,Minimum Inhibitory Concentration,[5],1 µg/mL
same,Minimum Inhibitory Concentration,[6],1 µg/mL
same,Minimum Inhibitory Concentration,[7],1 µg/mL
same,Minimum Inhibitory Concentration,[8],2 µg/mL
same,Minimum Inhibitory Concentration,[9],1 µg/mL
KVVKNWPIGKVVKKVVKKVVK [compound 19],Minimum Inhibitory Concentration,[1],2 µg/mL
same,Minimum Inhibitory Concentration,[2],1 µg/mL
same,Minimum Inhibitory Concentration,[3],1 µg/mL
same,Minimum Inhibitory Concentration,[4],1 µg/mL
same,Minimum Inhibitory Concentration,[5],1 µg/mL
same,Minimum Inhibitory Concentration,[6],1 µg/mL
same,Minimum Inhibitory Concentration,[7],2 µg/mL
same,Minimum Inhibitory Concentration,[8],1 µg/mL
same,Minimum Inhibitory Concentration,[9],2 µg/mL
RVLRQWPIGRVLRRVLRRVLR [compound 5],Minimum Inhibitory Concentration,[1],2 µg/mL
same,Minimum Inhibitory Concentration,[2],1 µg/mL
same,Minimum Inhibitory Concentration,[3],1 µg/mL
same,Minimum Inhibitory Concentration,[4],1 µg/mL
same,Minimum Inhibitory Concentration,[5],1 µg/mL
same,Minimum Inhibitory Concentration,[6],1 µg/mL
same,Minimum Inhibitory Concentration,[7],1 µg/mL
same,Minimum Inhibitory Concentration,[8],1 µg/mL
same,Minimum Inhibitory Concentration,[9],1 µg/mL
KLLKNWPIGKLLKKLLKKLLK [compound 21],Minimum Inhibitory Concentration,[1],1 µg/mL
same,Minimum Inhibitory Concentration,[2],2 µg/mL
same,Minimum Inhibitory Concentration,[3],2 µg/mL
same,Minimum Inhibitory Concentration,[4],1 µg/mL
same,Minimum Inhibitory Concentration,[5],1 µg/mL
same,Minimum Inhibitory Concentration,[6],1 µg/mL
same,Minimum Inhibitory Concentration,[7],1 µg/mL
same,Minimum Inhibitory Concentration,[8],2 µg/mL
same,Minimum Inhibitory Concentration,[9],1 µg/mL
RLLKQWPIGRLLKRLLKRLLK [compound 11],Minimum Inhibitory Concentration,[1],2 µg/mL
same,Minimum Inhibitory Concentration,[2],2 µg/mL
same,Minimum Inhibitory Concentration,[3],1 µg/mL
same,Minimum Inhibitory Concentration,[4],1 µg/mL
same,Minimum Inhibitory Concentration,[5],1 µg/mL
same,Minimum Inhibitory Concentration,[6],1 µg/mL
same,Minimum Inhibitory Concentration,[7],1 µg/mL
same,Minimum Inhibitory Concentration,[8],2 µg/mL
same,Minimum Inhibitory Concentration,[9],1 µg/mL
RLVRRLVRRLVRNWPIGRLVR [compound 58],Minimum Inhibitory Concentration,[1],2 µg/mL
same,Minimum Inhibitory Concentration,[2],1 µg/mL
same,Minimum Inhibitory Concentration,[3],2 µg/mL
same,Minimum Inhibitory Concentration,[4],1 µg/mL
same,Minimum Inhibitory Concentration,[5],1 µg/mL
same,Minimum Inhibitory Concentration,[6],1 µg/mL
same,Minimum Inhibitory Concentration,[7],1 µg/mL
same,Minimum Inhibitory Concentration,[8],1 µg/mL
same,Minimum Inhibitory Concentration,[9],1 µg/mL
KVVRKVVRKVVRQWPIGKVVR [compound 44],Minimum Inhibitory Concentration,[1],1 µg/mL
same,Minimum Inhibitory Concentration,[2],1 µg/mL
same,Minimum Inhibitory Concentration,[3],2 µg/mL
same,Minimum Inhibitory Concentration,[4],1 µg/mL
same,Minimum Inhibitory Concentration,[5],1 µg/mL
same,Minimum Inhibitory Concentration,[6],1 µg/mL
same,Minimum Inhibitory Concentration,[7],2 µg/mL
same,Minimum Inhibitory Concentration,[8],2 µg/mL
same,Minimum Inhibitory Concentration,[9],1 µg/mL
KVVKKVVKKVVKQWPIGKVVK [compound 36],Minimum Inhibitory Concentration,[1],2 µg/mL
same,Minimum Inhibitory Concentration,[2],1 µg/mL
same,Minimum Inhibitory Concentration,[3],2 µg/mL
same,Minimum Inhibitory Concentration,[4],1 µg/mL
same,Minimum Inhibitory Concentration,[5],1 µg/mL
same,Minimum Inhibitory Concentration,[6],1 µg/mL
same,Minimum Inhibitory Concentration,[7],1 µg/mL
same,Minimum Inhibitory Concentration,[8],2 µg/mL
same,Minimum Inhibitory Concentration,[9],2 µg/mL
RVLKRVLKRVLKNWPIGRVLK-NH2 [compound 72],Minimum Inhibitory Concentration,[1],2 µg/mL
same,Minimum Inhibitory Concentration,[2],1 µg/mL
same,Minimum Inhibitory Concentration,[3],1 µg/mL
same,Minimum Inhibitory Concentration,[4],1 µg/mL
same,Minimum Inhibitory Concentration,[5],1 µg/mL
same,Minimum Inhibitory Concentration,[6],1 µg/mL
same,Minimum Inhibitory Concentration,[7],1 µg/mL
same,Minimum Inhibitory Concentration,[8],2 µg/mL
same,Minimum Inhibitory Concentration,[9],1 µg/mL
KVLKNWPIGKVLKKVLKKVLK [compound 23],Minimum Inhibitory Concentration,[1],1 µg/mL
same,Minimum Inhibitory Concentration,[2],2 µg/mL
same,Minimum Inhibitory Concentration,[3],1 µg/mL
same,Minimum Inhibitory Concentration,[4],1 µg/mL
same,Minimum Inhibitory Concentration,[5],1 µg/mL
same,Minimum Inhibitory Concentration,[6],1 µg/mL
same,Minimum Inhibitory Concentration,[7],1 µg/mL
same,Minimum Inhibitory Concentration,[8],2 µg/mL
same,Minimum Inhibitory Concentration,[9],1 µg/mL
KLVRQWPIGKLVRKLVRKLVR-NH2 [compound 69],Minimum Inhibitory Concentration,[1],2 µg/mL
same,Minimum Inhibitory Concentration,[2],2 µg/mL
same,Minimum Inhibitory Concentration,[3],1 µg/mL
same,Minimum Inhibitory Concentration,[4],1 µg/mL
same,Minimum Inhibitory Concentration,[5],1 µg/mL
same,Minimum Inhibitory Concentration,[6],1 µg/mL
same,Minimum Inhibitory Concentration,[7],1 µg/mL
same,Minimum Inhibitory Concentration,[8],1 µg/mL
same,Minimum Inhibitory Concentration,[9],1 µg/mL
RLVKRLVKRLVKNWPIGRLVK [compound 66],Minimum Inhibitory Concentration,[1],2 µg/mL
same,Minimum Inhibitory Concentration,[2],1 µg/mL
same,Minimum Inhibitory Concentration,[3],1 µg/mL
same,Minimum Inhibitory Concentration,[4],1 µg/mL
same,Minimum Inhibitory Concentration,[5],1 µg/mL
same,Minimum Inhibitory Concentration,[6],1 µg/mL
same,Minimum Inhibitory Concentration,[7],1 µg/mL
same,Minimum Inhibitory Concentration,[8],2 µg/mL
same,Minimum Inhibitory Concentration,[9],2 µg/mL
KLVKKLVKKLVKQWPIGKLVK [compound 42],Minimum Inhibitory Concentration,[1],1 µg/mL
same,Minimum Inhibitory Concentration,[2],1 µg/mL
same,Minimum Inhibitory Concentration,[3],1 µg/mL
same,Minimum Inhibitory Concentration,[4],1 µg/mL
same,Minimum Inhibitory Concentration,[5],1 µg/mL
same,Minimum Inhibitory Concentration,[6],1 µg/mL
same,Minimum Inhibitory Concentration,[7],1 µg/mL
same,Minimum Inhibitory Concentration,[8],2 µg/mL
same,Minimum Inhibitory Concentration,[9],1 µg/mL
KLVRKLVRKLVRQFPVGKLVR [compound 51],Minimum Inhibitory Concentration,[1],2 µg/mL
same,Minimum Inhibitory Concentration,[2],2 µg/mL
same,Minimum Inhibitory Concentration,[3],1 µg/mL
same,Minimum Inhibitory Concentration,[4],1 µg/mL
same,Minimum Inhibitory Concentration,[5],1 µg/mL
same,Minimum Inhibitory Concentration,[6],1 µg/mL
same,Minimum Inhibitory Concentration,[7],1 µg/mL
same,Minimum Inhibitory Concentration,[8],1 µg/mL
same,Minimum Inhibitory Concentration,[9],1 µg/mL
KVLRKVLRKVLRNWPIGKVLR [compound 65],Minimum Inhibitory Concentration,[1],1 µg/mL
same,Minimum Inhibitory Concentration,[2],2 µg/mL
same,Minimum Inhibitory Concentration,[3],1 µg/mL
same,Minimum Inhibitory Concentration,[4],1 µg/mL
same,Minimum Inhibitory Concentration,[5],1 µg/mL
same,Minimum Inhibitory Concentration,[6],1 µg/mL
same,Minimum Inhibitory Concentration,[7],2 µg/mL
same,Minimum Inhibitory Concentration,[8],2 µg/mL
same,Minimum Inhibitory Concentration,[9],1 µg/mL
RVVRRVVRRVVRQWPIGRVVR [compound 35],Minimum Inhibitory Concentration,[1],2 µg/mL
same,Minimum Inhibitory Concentration,[2],1 µg/mL
same,Minimum Inhibitory Concentration,[3],1 µg/mL
same,Minimum Inhibitory Concentration,[4],1 µg/mL
same,Minimum Inhibitory Concentration,[5],1 µg/mL
same,Minimum Inhibitory Concentration,[6],1 µg/mL
same,Minimum Inhibitory Concentration,[7],1 µg/mL
same,Minimum Inhibitory Concentration,[8],1 µg/mL
same,Minimum Inhibitory Concentration,[9],2 µg/mL
KLLKKLLKKLLKQWPIGKLLK [compound 38],Minimum Inhibitory Concentration,[1],2 µg/mL
same,Minimum Inhibitory Concentration,[2],1 µg/mL
same,Minimum Inhibitory Concentration,[3],2 µg/mL
same,Minimum Inhibitory Concentration,[4],1 µg/mL
same,Minimum Inhibitory Concentration,[5],1 µg/mL
same,Minimum Inhibitory Concentration,[6],1 µg/mL
same,Minimum Inhibitory Concentration,[7],1 µg/mL
same,Minimum Inhibitory Concentration,[8],2 µg/mL
same,Minimum Inhibitory Concentration,[9],2 µg/mL
KLVRKLVRKLVRNFPVGKLVR [compound 68],Minimum Inhibitory Concentration,[1],2 µg/mL
same,Minimum Inhibitory Concentration,[2],1 µg/mL
same,Minimum Inhibitory Concentration,[3],1 µg/mL
same,Minimum Inhibitory Concentration,[4],1 µg/mL
same,Minimum Inhibitory Concentration,[5],1 µg/mL
same,Minimum Inhibitory Concentration,[6],1 µg/mL
same,Minimum Inhibitory Concentration,[7],1 µg/mL
same,Minimum Inhibitory Concentration,[8],2 µg/mL
same,Minimum Inhibitory Concentration,[9],1 µg/mL
KVVKQWPIGKVVKKVVKKVVK [compound 2],Minimum Inhibitory Concentration,[1],2 µg/mL
same,Minimum Inhibitory Concentration,[2],1 µg/mL
same,Minimum Inhibitory Concentration,[3],1 µg/mL
same,Minimum Inhibitory Concentration,[4],1 µg/mL
same,Minimum Inhibitory Concentration,[5],1 µg/mL
same,Minimum Inhibitory Concentration,[6],1 µg/mL
same,Minimum Inhibitory Concentration,[7],1 µg/mL
same,Minimum Inhibitory Concentration,[8],2 µg/mL
same,Minimum Inhibitory Concentration,[9],1 µg/mL
